Data as given in US9777020B2, “Furo-3-carboxamide derivatives and methods of use” (AbbVie Inc., priority 2014, dated 2017).

target: TrkA (Homo sapiens (Human), UniProt P04629); assay: TrkA kinase HTRF enzyme inhibition assay; format: biochemical; settings: TrkA pre-incubated with 200 μM ATP
Experimental: TrkA enzyme was obtained from Invitrogen (as catalog numbers PV3144, PV3616, and PV3617, respectively). Enzyme activity was measured in an HTRF® (homogeneous time resolved fluorescence) assay, which detects enzymatic phosphorylation of a biotinylated synthetic peptide substrate (an LCK peptide analog, biotin-ahx-[…], from Genemed Synthesis). Phosphorylation is assessed by HTRF® in the presence of an anti-phosphotyrosine antibody conjugated to Eu^3+ cryptate (Cisbio) as donor fluorophore, and streptavidin conjugated to allophycocyanin (ProZyme) as acceptor fluorophore. The HTRF® signal was detected at two different wavelengths (620 nm and 665 nm) which were used to calculate the fluorescence ratio.
TrkA enzyme was titrated to a concentration optimized to ensure accurate measurement of the initial reaction rate. To allow the TrkA enzyme to undergo activation and auto-phosphorylation, a 20 minute pre-incubation with ATP was carried out (at twice the final targeted enzyme and ATP concentration) prior to addition of test compound and the peptide substrate.
TrkA in vitro assays were performed by pre-incubating TrkA (2-10 nM) with ATP (200 μM) for 20 minutes at ambient temperature in 50 mM HEPES pH 7.4, 10 mM MgCl2, 2 mM MnCl2, 100 μM Na3VO4, 1 mM dithiothreitol, 0.01% BSA (bovine serum albumin). Then, to the activated Trk enzyme mixture was added the test compound in 2% dimethyl sulfoxide. After 10 minutes, the peptide substrate (125 nM) was added. After 1 hour, enzyme reactions were terminated by addition of equal reaction volumes of detection/stop reagent (containing 0.2 μg/mL anti-phosphotyrosine monoclonal antibody labeled with europium from Cisbio (catalog#PT66-K), and 4 μg/mL PhycoLink® Streptavidin-Allophycocyanin conjugate from ProZyme (catalog#PJ25S) in 60 mM EDTA in 40 mM HEPES pH 7.4, 480 mM KF, 0.01% Tween® 20 and 0.1% BSA bovine serum albumin) Reaction plates were stored at 4° C. overnight before reading the fluorescence ratio signal on a PerkinElmer EnVision™ fluorescence detector. Individual reaction wells were stopped at time points to obtain reaction rates. The test inhibitor compounds were assayed in duplicate, at half-log serial dilutions over a range of concentrations (e.g. starting at 50 μM or 5 μM as the high compound concentration). The percent Trk enzyme inhibition was calculated from the initial rates of the inhibited reactions relative to the uninhibited control. IC50 values were calculated by fitting the inhibition percent to the concentration of inhibitor [I] in the assay in equation 1 below, to solve for the IC50. Inhibition %=100[I]/([I]+[IC50]) equation 1

Chain of TrkA (P04629 33-796): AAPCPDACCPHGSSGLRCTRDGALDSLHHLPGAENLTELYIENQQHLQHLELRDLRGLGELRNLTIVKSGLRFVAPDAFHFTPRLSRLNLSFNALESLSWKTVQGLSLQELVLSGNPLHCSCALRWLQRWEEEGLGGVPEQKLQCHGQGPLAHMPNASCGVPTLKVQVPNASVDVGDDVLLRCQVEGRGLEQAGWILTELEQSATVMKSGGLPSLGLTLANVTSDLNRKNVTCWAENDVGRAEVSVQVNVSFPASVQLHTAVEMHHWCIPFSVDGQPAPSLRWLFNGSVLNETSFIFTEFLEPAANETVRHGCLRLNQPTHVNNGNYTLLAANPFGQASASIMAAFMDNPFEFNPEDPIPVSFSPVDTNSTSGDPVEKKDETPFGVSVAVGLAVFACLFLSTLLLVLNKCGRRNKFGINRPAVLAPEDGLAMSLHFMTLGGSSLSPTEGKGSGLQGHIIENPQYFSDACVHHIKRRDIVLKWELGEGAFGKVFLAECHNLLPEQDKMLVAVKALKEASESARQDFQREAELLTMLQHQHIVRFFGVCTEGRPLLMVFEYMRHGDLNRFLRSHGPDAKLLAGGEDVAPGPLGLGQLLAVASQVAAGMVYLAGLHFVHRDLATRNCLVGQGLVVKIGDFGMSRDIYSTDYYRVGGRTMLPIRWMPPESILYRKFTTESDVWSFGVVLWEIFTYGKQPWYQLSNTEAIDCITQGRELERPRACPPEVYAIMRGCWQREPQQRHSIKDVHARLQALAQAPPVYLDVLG

Compared with `Cc1n[nH]c2ccc(NC(=O)c3coc4c3C(=O)N(C)CC4)cc12` [Example 73, 5-methyl-N-(3-methyl-1H-indazol-5-yl)-4-oxo-4,5,6,7-tetrahydrofuro[3,2-c]pyridine-3-carboxamide], `Cc1nc2cc(NC(=O)c3coc4c3C(=O)N(C)CC4)ccc2[nH]1` [Example 78, 5-methyl-N-(2-methyl-1H-benzimidazol-5-yl)-4-oxo-4,5,6,7-tetrahydrofuro[3,2-c]pyridine-3-carboxamide] is 4.6-fold lower in IC50: 1080 nM for the first, 236 nM for the second. The second is the more potent here.

Going from `Cc1cc2[nH]ncc2cc1NC(=O)c1coc2c1C(=O)N(C)CC2` [Example 74, 5-methyl-N-(6-methyl-1H-indazol-5-yl)-4-oxo-4,5,6,7-tetrahydrofuro[3,2-c]pyridine-3-carboxamide] to `CN1CCc2occ(C(=O)Nc3cc4cn[nH]c4cc3Cl)c2C1=O` [Example 77, N-(6-chloro-1H-indazol-5-yl)-5-methyl-4-oxo-4,5,6,7-tetrahydrofuro[3,2-c]pyridine-3-carboxamide], the IC50 falls from 2590 nM to 367 nM (7.1-fold). The second is the more potent here.

`CN1CCc2occ(C(=O)Nc3nc4ccccc4s3)c2C1=O` [Example 75, N-(1,3-benzothiazol-2-yl)-5-methyl-4-oxo-4,5,6,7-tetrahydrofuro[3,2-c]pyridine-3-carboxamide] and `CN1CCc2occ(C(=O)Nc3ccc(C(F)(F)F)cn3)c2C1=O` [Example 76, 5-methyl-4-oxo-N-[5-(trifluoromethyl)pyridin-2-yl]-4,5,6,7-tetrahydrofuro[3,2-c]pyridine-3-carboxamide] are within 1.5-fold of each other in IC50: 2050 nM for the first, 1530 nM for the second.

`COc1cc(N2CCN(C(=O)CC(C)(C)C)CC2)ccc1NC(=O)c1coc2c1C(=O)NCC2` [Example 79, N-{4-[4-(3,3-dimethylbutanoyl)piperazin-1-yl]-2-methoxyphenyl}-4-oxo-4,5,6,7-tetrahydrofuro[3,2-c]pyridine-3-carboxamide] and `COc1cc(N2CCN(S(=O)(=O)N(C)C)CC2)ccc1NC(=O)c1coc2c1C(=O)NCC2` [Example 81, N-{4-[4-(dimethylsulfamoyl)piperazin-1-yl]-2-methoxyphenyl}-4-oxo-4,5,6,7-tetrahydrofuro[3,2-c]pyridine-3-carboxamide] are within 1.5-fold of each other in IC50: 44.7 nM for the first, 65.8 nM for the second.

Going from `COc1cc(N2CCN(C(=O)N3CCCC3)CC2)ccc1NC(=O)c1coc2c1C(=O)NCC2` [Example 80, N-{2-methoxy-4-[4-(pyrrolidin-1-ylcarbonyl)piperazin-1-yl]phenyl}-4-oxo-4,5,6,7-tetrahydrofuro[3,2-c]pyridine-3-carboxamide] to `CCOc1nc(N2CCN(C(=O)OC(C)(C)C)CC2)ccc1NC(=O)c1coc2c1C(=O)NCC2` [Example 92, tert-butyl 4-(6-ethoxy-5-{[(4-oxo-4,5,6,7-tetrahydrofuro[3,2-c]pyridin-3-yl)carbonyl]amino}pyridin-2-yl)piperazine-1-carboxylate], the IC50 falls from 67.7 nM to 18.2 nM (3.7-fold).

`COC(=O)c1ccc(Oc2nc(N3CCN(C)CC3)ccc2NC(=O)c2coc3c2C(=O)NCCC3)cc1` [Example 82, methyl 4-{[6-(4-methylpiperazin-1-yl)-3-{[(4-oxo-5,6,7,8-tetrahydro-4H-furo[3,2-c]azepin-3-yl)carbonyl]amino}pyridin-2-yl]oxy}benzoate] and `CN1CCN(c2ccc(NC(=O)c3coc4c3C(=O)NCCC4)c(Oc3ccc(CO)cc3)n2)CC1` [Example 83, N-{2-[4-(hydroxymethyl)phenoxy]-6-(4-methylpiperazin-1-yl)pyridin-3-yl}-4-oxo-5,6,7,8-tetrahydro-4H-furo[3,2-c]azepine-3-carboxamide] are within 1.5-fold of each other in IC50: 682 nM for the first, 496 nM for the second.

`CCOc1nc(N2CCN(C(C)=O)CC2)ccc1NC(=O)c1coc2c1C(=O)N(CCOC)CC2` [Example 84, N-[6-(4-acetylpiperazin-1-yl)-2-ethoxypyridin-3-yl]-5-(2-methoxyethyl)-4-oxo-4,5,6,7-tetrahydrofuro[3,2-c]pyridine-3-carboxamide] and `CCOc1nc(N2CCN(C(C)=O)CC2)ccc1NC(=O)c1coc2c1C(=O)N(CCOCCO)CC2` [Example 91, N-[6-(4-acetylpiperazin-1-yl)-2-ethoxypyridin-3-yl]-5-[2-(2-hydroxyethoxyl)ethyl]-4-oxo-4,5,6,7-tetrahydrofuro[3,2-c]pyridine-3-carboxamide] are within 1.5-fold of each other in IC50: 5.3 nM for the first, 7 nM for the second.

Going from `COCCOc1nc(N2CCN(C(C)=O)CC2)ccc1NC(=O)c1coc2c1C(=O)N(CCOCc1ccccc1)CC2` [Example 85, N-[6-(4-acetylpiperazin-1-yl)-2-(2-methoxyethoxyl)pyridin-3-yl]-5-[2-(benzyloxy)ethyl]-4-oxo-4,5,6,7-tetrahydrofuro[3,2-c]pyridine-3-carboxamide] to `CC(=O)N1CCN(c2ccc(NC(=O)c3coc4c3C(=O)N(CCOCc3ccccc3)CC4)c(OCCOCc3ccccc3)n2)CC1` [Example 86, N-{6-(4-acetylpiperazin-1-yl)-2-[2-(benzyloxy)ethoxy]pyridin-3-yl}-5-[2-(benzyloxy)ethyl]-4-oxo-4,5,6,7-tetrahydrofuro[3,2-c]pyridine-3-carboxamide], the IC50 rises from 266 nM to 1320 nM (5-fold). The first is the more potent here.

First: COCCOc1nc(N2CCN(C(C)=O)CC2)ccc1NC(=O)c1coc2c1C(=O)N(CCO)CC2 [Example 87, N-[6-(4-acetylpiperazin-1-yl)-2-(2-methoxyethoxyl)pyridin-3-yl]-5-(2-hydroxyethyl)-4-oxo-4,5,6,7-tetrahydrofuro[3,2-c]pyridine-3-carboxamide]
Second: CC(=O)N1CCN(c2ccc(NC(=O)c3coc4c3C(=O)N(CCO)CC4)c(OCCO)n2)CC1 [Example 88, N-[6-(4-acetylpiperazin-1-yl)-2-(2-hydroxyethoxyl)pyridin-3-yl]-5-(2-hydroxyethyl)-4-oxo-4,5,6,7-tetrahydrofuro[3,2-c]pyridine-3-carboxamide]
The IC50 of the first is 2.4-fold higher: 224 nM for the first, 95 nM for the second.

`CCOc1nc(N2CCN(C(C)=O)CC2)ccc1NC(=O)c1coc2c1C(=O)N(CCCO)CC2` [Example 89, N-[6-(4-acetylpiperazin-1-yl)-2-ethoxypyridin-3-yl]-5-(3-hydroxypropyl)-4-oxo-4,5,6,7-tetrahydrofuro[3,2-c]pyridine-3-carboxamide] and `CCOc1nc(N2CCN(C(C)=O)CC2)ccc1NC(=O)c1coc2c1C(=O)N(CCCCO)CC2` [Example 90, N-[6-(4-acetylpiperazin-1-yl)-2-ethoxypyridin-3-yl]-5-(4-hydroxybutyl)-4-oxo-4,5,6,7-tetrahydrofuro[3,2-c]pyridine-3-carboxamide] are the same in IC50: 4.7 nM for the first, 4.7 nM for the second.

First: CCOc1nc(N2CCN(C(=NC#N)NC)CC2)ccc1NC(=O)c1coc2c1C(=O)NCC2 [Example 93, N-{6-[4-(N′-cyano-N-methylcarbamimidoyl)piperazin-1-yl]-2-ethoxypyridin-3-yl}-4-oxo-4,5,6,7-tetrahydrofuro[3,2-c]pyridine-3-carboxamide]
Second: CCOc1nc(N2CCN(C(C)=O)CC2)ccc1NC(=O)c1coc2c1C(=O)N(C[C@@H](C)O)CC2 [Example 95, N-[6-(4-acetylpiperazin-1-yl)-2-ethoxypyridin-3-yl]-5-[(2R)-2-hydroxypropyl]-4-oxo-4,5,6,7-tetrahydrofuro[3,2-c]pyridine-3-carboxamide]
The IC50 of the first is 3.8-fold higher: 16.3 nM for the first, 4.3 nM for the second. The second is the more potent here.

First: CCOc1nc(N2CCN(C(C)=O)CC2)ccc1NC(=O)c1coc2c1C(=O)N(C[C@@H](C)OC(C)=O)CC2 [Example 94, (2R)-1-[3-{[6-(4-acetylpiperazin-1-yl)-2-ethoxypyridin-3-yl]carbamoyl}-4-oxo-6,7-dihydrofuro[3,2-c]pyridin-5(4H)-yl]propan-2-yl acetate]
Second: CCOc1nc(N2CCN(C(C)=O)CC2)ccc1NC(=O)c1coc2c1C(=O)N(C[C@H](C)OC(C)=O)CC2 [Example 96, (2S)-1-[3-{[6-(4-acetylpiperazin-1-yl)-2-ethoxypyridin-3-yl]carbamoyl}-4-oxo-6,7-dihydrofuro[3,2-c]pyridin-5(4H)-yl]propan-2-yl acetate]
The IC50 of the first is 4.5-fold lower: 1.5 nM for the first, 6.7 nM for the second.

First: CCOc1nc(N2CCN(C(C)=O)CC2)ccc1NC(=O)c1coc2c1C(=O)N(C[C@H](C)O)CC2 [Example 97, N-[6-(4-acetylpiperazin-1-yl)-2-ethoxypyridin-3-yl]-5-[(2S)-2-hydroxypropyl]-4-oxo-4,5,6,7-tetrahydrofuro[3,2-c]pyridine-3-carboxamide]
Second: CCOc1nc(N2CCN(C(C)=O)CC2)ccc1NC(=O)c1coc2c1C(=O)N([C@H](C)COC(C)=O)CC2 [Example 98, (2R)-2-[3-{[6-(4-acetylpiperazin-1-yl)-2-ethoxypyridin-3-yl]carbamoyl}-4-oxo-6,7-dihydrofuro[3,2-c]pyridin-5(4H)-yl]propyl acetate]
The IC50 of the first is 3.2-fold higher: 4.8 nM for the first, 1.5 nM for the second. The second is the more potent here.
